Assay results reported in US12209102B2, “Heterocyclic compounds and uses thereof” (Kumquat Biosciences Inc., priority 2022, dated 2025).

How the values were obtained:
[1] = target: T1, K-Ras G12D (Homo sapiens, UniProt P01116, G12D); experiment: HTRF resonance energy transfer assay, K-Ras G12D / SOS1 interaction; format: biochemical; conditions: HTRF assay of Example 5; read-out: IC50 against K-Ras G12D
T1 construct: made in house; host or cells: E. coli BL21 (DE3)
In short: (§1)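 Compounds, tested in duplicate at 10 μM down to 0.01 μM, were read after about 10 min or more by HTRF as the 665/620 nm emission ratio (337 nm excitation) to derive IC50. This ratio reports FRET between an anti-GST-Eu donor on GST-K-Ras (wild-type or mutant) and an anti-6His-XL665 acceptor on His-hSOS1. Buffer: ~5 mM HEPES pH 7.4, 150 mM NaCl, 1 mM DTT, 0.05% BSA, 0.0025% Igepal.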

[2] = target: T2, K-Ras G12S (Homo sapiens, UniProt P01116, G12S); experiment: HTRF resonance energy transfer assay, K-Ras G12S / SOS1 interaction; format: biochemical; conditions: HTRF assay of Example 5; read-out: IC50 against K-Ras G12S
T2 construct: made in house; host or cells: E. coli BL21 (DE3)
T2 sequence (P01116 1-188 isoform P01116-2 G12S): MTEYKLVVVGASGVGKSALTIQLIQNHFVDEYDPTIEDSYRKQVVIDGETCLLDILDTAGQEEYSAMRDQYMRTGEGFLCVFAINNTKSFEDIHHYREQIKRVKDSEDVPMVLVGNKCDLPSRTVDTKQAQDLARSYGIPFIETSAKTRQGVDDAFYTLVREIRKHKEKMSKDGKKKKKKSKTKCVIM
In short: as §1

[3] = target: T3, K-Ras G12V (Homo sapiens, UniProt P01116, G12V); experiment: HTRF resonance energy transfer assay, K-Ras G12V / SOS1 interaction; format: biochemical; conditions: HTRF assay of Example 5; read-out: IC50 against K-Ras G12V
T3 construct: made in house; host or cells: E. coli BL21 (DE3)
T3 sequence (P01116 1-188 isoform P01116-2 G12V): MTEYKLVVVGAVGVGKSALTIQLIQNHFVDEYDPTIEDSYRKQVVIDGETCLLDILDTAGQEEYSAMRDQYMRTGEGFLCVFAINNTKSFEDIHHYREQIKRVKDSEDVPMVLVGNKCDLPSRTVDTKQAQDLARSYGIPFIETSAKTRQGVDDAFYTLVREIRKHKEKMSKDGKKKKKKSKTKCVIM
In short: as §1

[4] = target: T4, K-Ras WT (Homo sapiens, UniProt P01116); experiment: HTRF resonance energy transfer assay, K-Ras WT / SOS1 interaction; format: biochemical; conditions: HTRF assay of Example 5; read-out: IC50 against K-Ras WT
T4 construct: made in house; host or cells: E. coli BL21 (DE3)
T4 sequence (P01116 1-188 isoform P01116-2): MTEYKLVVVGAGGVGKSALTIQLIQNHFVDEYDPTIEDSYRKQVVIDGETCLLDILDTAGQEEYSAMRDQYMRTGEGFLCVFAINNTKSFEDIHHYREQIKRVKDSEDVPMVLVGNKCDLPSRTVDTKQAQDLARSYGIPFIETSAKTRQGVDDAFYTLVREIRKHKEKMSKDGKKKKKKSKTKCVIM
In short: as §1

[5] = tested on: GP2D cells; experiment: Ras cellular assay, growth of cells with K-Ras G12D mutation (CellTiter-Glo); format: cell-based; conditions: cell growth, Example 9, G12D mutation, read-out: IC50 against GP2D cells
[6] = tested on: A549 cells; experiment: Ras cellular assay, growth of cells with K-Ras G12S mutation (CellTiter-Glo); format: cell-based; conditions: Homo sapiens, cell growth, Example 9, G12S mutation, read-out: IC50 against A549 cells
In short: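 Growth inhibition IC50 values come from four-parameter fits of CellTiter-Glo luminescence, read about 6 days after compound addition. G12S-mutant A549 cells (e.g. 800/well, RPMI-1640 + 10% heat-inactivated FBS) were plated in tissue-culture-treated or ultra-low-attachment 384-well format. Dosing began the following day with serial dilutions, e.g. 10 points, 3-fold.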

[7] = tested on: SW620 cells; experiment: Ras cellular assay, growth of cells with K-Ras G12V mutation (CellTiter-Glo); format: cell-based; conditions: Homo sapiens, SW-620; cell growth, Example 9, G12V mutation; read-out: IC50 against SW620 cells
In short: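 IC50 values came from a four-parameter fit of CellTiter-Glo viability, read roughly 6 days after dosing with e.g. a 10-point threefold dilution series. G12V-mutant SW620 cells (e.g. 800 per well) had been plated the previous day in RPMI-1640/10% heat-inactivated FBS, on tissue culture-treated or ultra-low attachment plates.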

T1 sequence (P01116 1-188 isoform P01116-2 G12D): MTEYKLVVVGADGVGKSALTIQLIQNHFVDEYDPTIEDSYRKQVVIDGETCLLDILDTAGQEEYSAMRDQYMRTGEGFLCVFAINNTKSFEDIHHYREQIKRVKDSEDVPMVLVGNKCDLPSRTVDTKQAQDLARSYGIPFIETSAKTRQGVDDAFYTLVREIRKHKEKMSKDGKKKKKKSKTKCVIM

IC50 [1]	IC50 [2]	IC50 [3]	IC50 [4]	IC50 [6]	IC50 [7]	SMILES	IC50 [5]
< 0.1 µM		< 0.1 µM	< 0.1 µM	< 5 µM	< 5 µM	N#Cc1c(N)sc2c(F)ccc(-c3c(Cl)c4c5c(nc(OC[C@@]67CCCN6C[C@H](F)C7)nc5c3F)N(CC(F)F)CC(C(F)(F)F)O4)c12 (stereo partly drawn) [Compound 1008, 2-amino-4-(8-chloro-4-(2,2-difluoroethyl)-10-fluoro-2-(((2R,7aS)-2-fluorotetrahydro-1H-pyrrolizin-7a(5H)-yl)methoxy)-6-(trifluoromethyl)-5,6-dihydro-4H-[1,4]oxazepino[5,6,7-de]quinazolin-9-yl)-7-fluorobenzo[b]thiophene-3-carbonitrile]	< 0.5 µM
				< 5 µM		CN(C)C(=O)C1CC(N2CCOc3c(Cl)c(-c4ccc(F)c5sc(N)c(C#N)c45)c(F)c4nc(OC[C@@]56CCCN5C[C@H](F)C6)nc2c34)C1 (single isomer, unassigned) [Compound 640]	< 0.5 µM
				< 5 µM	< 5 µM	CC1Oc2c(Cl)c(-c3ccc(F)c4sc(N)c(C#N)c34)c(F)c3nc(OC[C@@]45CCCN4C[C@H](F)C5)nc(c23)N(CC(F)F)C1CC#N (stereo partly drawn) [Compound 1015, 2-amino-4-(8-chloro-5-(cyanomethyl)-4-(2,2-difluoroethyl)-10-fluoro-2-(((2R,7aS)-2-fluorotetrahydro-1H-pyrrolizin-7a(5H)-yl)methoxy)-6-methyl-5,6-dihydro-4H-[1,4]oxazepino[5,6,7-de]quinazolin-9-yl)-7-fluorobenzo[b]thiophene-3-carbonitrile]	< 0.5 µM
				< 5 µM	< 5 µM	N#Cc1c(N)sc2c(F)ccc(-c3c(Cl)c4c5c(nc(OC[C@@]67CCCN6C[C@H](F)C7)nc5c3F)N(CC3CC3C#N)CCO4)c12 (stereo partly drawn) [Compound 962, 2-amino-4-(8-chloro-4-((2-cyanocyclopropyl)methyl)-10-fluoro-2-(((2R,7aS)-2-fluorotetrahydro-1H-pyrrolizin-7a(5H)-yl)methoxy)-5,6-dihydro-4H-[1,4]oxazepino[5,6,7-de]quinazolin-9-yl)-7-fluorobenzo[b]thiophene-3-carbonitrile]	< 0.5 µM
				< 5 µM		CC[C@H]1COc2c(Cl)c(-c3ccc(F)c4sc(N)c(C#N)c34)c(F)c3nc(OC[C@@]45CCCN4C[C@H](F)C5)nc(c23)N1CC(F)F [Compound 877, 2-amino-4-((5S)-8-chloro-4-(2,2-difluoroethyl)-5-ethyl-10-fluoro-2-(((2R,7aS)-2-fluorotetrahydro-1H-pyrrolizin-7a(5H)-yl)methoxy)-5,6-dihydro-4H-[1,4]oxazepino[5,6,7-de]quinazolin-9-yl)-7-fluorobenzo[b]thiophene-3-carbonitrile]	< 0.5 µM
				< 5 µM		N#Cc1c(N)sc2c(F)ccc(-c3c(Cl)c4c5c(nc(OC[C@@]67CCCN6C[C@H](F)C7)nc5c3F)N(C3CCCC3O)CCO4)c12 (stereo partly drawn) [Compound 1017, 2-amino-4-(8-chloro-10-fluoro-2-(((2R,7aS)-2-fluorotetrahydro-1H-pyrrolizin-7a(5H)-yl)methoxy)-4-(2-hydroxycyclopentyl)-5,6-dihydro-4H-[1,4]oxazepino[5,6,7-de]quinazolin-9-yl)-7-fluorobenzo[b]thiophene-3-carbonitrile]	< 0.5 µM
				< 5 µM	< 5 µM	N#Cc1c(N)sc2c(F)ccc(-c3c(Cl)c4c5c(nc(OC[C@@]67CCCN6C[C@H](F)C7)nc5c3F)N(CC(F)F)C(CO)CO4)c12 (stereo partly drawn) [Compound 1037, 2-amino-4-(8-chloro-4-(2,2-difluoroethyl)-10-fluoro-2-(((2R,7aS)-2-fluorotetrahydro-1H-pyrrolizin-7a(5H)-yl)methoxy)-5-(hydroxymethyl)-5,6-dihydro-4H-[1,4]oxazepino[5,6,7-de]quinazolin-9-yl)-7-fluorobenzo[b]thiophene-3-carbonitrile]	< 0.5 µM
				< 5 µM	< 5 µM	N#Cc1c(N)sc2c(F)ccc(-c3c(Cl)c4c5c(nc(OC[C@@]67CCCN6C[C@H](F)C7)nc5c3F)N(C3CC3)CCCO4)c12 [Compound 1204, 2-amino-4-(9-chloro-4-cyclopropyl-11-fluoro-2-(((2R,7aS)-2-fluorotetrahydro-1H-pyrrolizin-7a(5H)-yl)methoxy)-4,5,6,7-tetrahydro-[1,5]oxazocino[4,3,2-de]quinazolin-10-yl)-7-fluorobenzo[b]thiophene-3-carbonitrile]	< 0.5 µM
				< 5 µM		CC1COc2c(Cl)c(-c3ccc(F)c4sc(N)c(C#N)c34)c(F)c3nc(OC[C@@]45CCCN4C[C@H](F)C5)nc(c23)N1CC(F)F (single isomer, unassigned) [Compound 1073]	< 0.5 µM
< 0.1 µM	< 0.1 µM	< 0.1 µM	< 0.1 µM		< 5 µM	C[C@@H]1CCOc2c(Cl)c(-c3ccc(F)c4sc(N)c(C#N)c34)c(F)c3nc(OC[C@@]45CCCN4C[C@H](F)C5)nc(c23)N1C [Compound 1222, 2-amino-4-((R)-9-chloro-11-fluoro-2-(((2R,7aS)-2-fluorotetrahydro-1H-pyrrolizin-7a(5H)-yl)methoxy)-4,5-dimethyl-4,5,6,7-tetrahydro-[1,5]oxazocino[4,3,2-de]quinazolin-10-yl)-7-fluorobenzo[b]thiophene-3-carbonitrile]	< 0.5 µM
< 0.1 µM	< 0.1 µM		< 0.1 µM	< 5 µM	< 5 µM	N#Cc1c(N)sc2c(F)ccc(-c3c(Cl)c4c5c(nc(OC[C@@]67CCCN6C[C@H](F)C7)nc5c3F)N(CC(F)F)C(C(F)F)CO4)c12 (stereo partly drawn) [Compound 1105, 2-amino-4-(8-chloro-4-(2,2-difluoroethyl)-5-(difluoromethyl)-10-fluoro-2-(((2R,7aS)-2-fluorotetrahydro-1H-pyrrolizin-7a(5H)-yl)methoxy)-5,6-dihydro-4H-[1,4]oxazepino[5,6,7-de]quinazolin-9-yl)-7-fluorobenzo[b]thiophene-3-carbonitrile]	< 0.5 µM
< 0.1 µM	< 0.1 µM	< 0.1 µM	< 0.1 µM	< 5 µM		CCN1CCOc2c(Cl)c(-c3ccc(F)c4sc(N)c(C#N)c34)c(F)c3nc(OC[C@@]45CCCN4C[C@H](F)C5)nc1c23 [Compound 625, 2-amino-4-(8-chloro-4-ethyl-10-fluoro-2-(((2R,7aS)-2-fluorotetrahydro-1H-pyrrolizin-7a(5H)-yl)methoxy)-5,6-dihydro-4H-[1,4]oxazepino[5,6,7-de]quinazolin-9-yl)-7-fluorobenzo[b]thiophene-3-carbonitrile]	< 0.5 µM

SMILES	IC50 [1]	IC50 [2]	IC50 [3]	IC50 [4]	IC50 [6]	IC50 [7]	IC50 [5]
Cn1cc(N2CCOc3c(Cl)c(-c4ccc(F)c5sc(N)c(C#N)c45)c(F)c4nc(OC[C@@]56CCCN5C[C@H](F)C6)nc2c34)cn1 [Compound 765, 2-amino-4-(8-chloro-10-fluoro-2-(((2R,7aS)-2-fluorotetrahydro-1H-pyrrolizin-7a(5H)-yl)methoxy)-4-(1-methyl-1H-pyrazol-4-yl)-5,6-dihydro-4H-[1,4]oxazepino[5,6,7-de]quinazolin-9-yl)-7-fluorobenzo[b]thiophene-3-carbonitrile]	< 0.1 µM	< 0.1 µM	< 0.1 µM	< 0.1 µM	< 5 µM	< 5 µM	< 0.5 µM
